The source of these data is patent US8809368B2, “Compounds affecting gap junction activity” (Kansas State University Research Foundation, priority 2006, dated 2014).

The subject of one assay is MDA-MB-453 cells. Kind of assay: Gap junction activity (GJIC), flow cytometry of dye coupling, MDA-MB-453 cells. The format is cell-based, human. Conditions: MDA-MB-453; for effect on gap junction intercellular communication: Table 1, concentration not given. How it is done:
FIG. 4(A) MDA-MB-453 and (B) T47D cells were treated with low (500 nM) and high (10 μM) concentrations of PQs for 24 hours. Monolayers of acceptor cell population were grown on 25-cm flasks in the presence of Vibrant DiD. Vybrant DiD in acceptor cells is not able to pass through the gap junctions because of its hydrophobic property. Single cell suspensions of donor treated cells were prepared, labeled with 0.05 μg/ml calcein-AM, incubated at 37 C for 5 minutes. Quantification of dye coupling between the donor and acceptor cells was assessed by dual-excitation flow cytometry. […] Cells treated with 10 μM PQ3 have approximately 40-50% decrease in gap junction activity compared control or DMSO.
On the technique in general: In flow cytometry, cells or beads pass a laser one at a time.

Another assay relates to Trypanosoma brucei. As to the kind of experiment: Anti-trypanosomal activity, inhibition of T. brucei growth (ATP-bioluminescence luciferase assay). Conditions: read-out: IC50 against Trypanosoma brucei. The format is cell-based. How it is done: The antiparasitic activities of exemplary compounds described here was studied using the anti-trypanosomal activity protocol described in: Rapp M, et al. J Med Chem 2006; 49:2096-102. […] FIG. 1 summarizes the compound inhibition of T. brucei growth. It is seen that compounds of the invention are useful in inhibiting T. brucei growth.
Culturing of Parasites. The bloodstream form of Trypanosoma brucei 427 strain was maintained under the standard cell culture conditions (37° C., 5% CO2). The parasites were grown in complete HMI-9 medium containing 10% FBS, 10% Serum Plus and 1× Penicillin/Streptomycin. (Angew. Chem. Int. Ed. Engl. 2003, 42, 5274-5293).
Luciferase Assay. Luciferase assay was used to measure ATP-bioluminescence in T. brucei cultured in 96-well plates at 37° C. for 48 hours. Parasites were diluted to 1.0×10^5 cells/mL in complete HMI-9 medium. One hundred microliters (100 μL) of the diluted parasites were aliquoted into sterile 96-well flat white opaque culture plates (Greiner). Each compound was serially diluted from 10 μM to 0.1 μM in DMSO and then mixed in the appropriate wells containing parasites. The treated parasites were then incubated for 48 hours at 37° C. with 5% CO2 before monitoring viability. To measure the viability of the parasites after treatment with each compound, the parasites were lysed in the wells by adding 100 μL of CellTiter-Glo™ (Promega). After lysis, the ATP bioluminescence of the 96-well plates was measured with a SpectraFluor Plus multidetection plate reader (Tecan).

The test system of assay [1] is MDA-MB-453 human breast cancer cells. As to the kind of experiment: Soft agar colony growth, MDA-MB-453 cells. In kind it is cell-based. Conditions: Table 2. How it is done: (§1) FIG. 3(A) MDA-MB-453 and (B) T47D human breast cancer cells were treated with 10 μM of various quinolines for 7 days. Base agar plates were prepared containing 0.8% agar and 0.4% agar in Ham's F12. Cells (5×10^4 cells/33 mm well) were suspended in 100 μl of Ham's F12 with 0.4% agar and plated. These plates were maintained at 37° C. for 7 days and examined for the presence of colonies. Individual colonies of 40 μm or greater were examined. […] However, PQ3 caused a 2.3-fold increase in colony growth in MDA-MB-453 cells and PQ2 caused a 2.6-fold increase in T47D colony growth compared to DMSO. FIGS. 7 and 8 show MDA-MB-453 and T47D colony growth for various concentrations of PQ1 and SA tested for 7 days. The procedures are generally as described above. The cell colony growth decreased using 10 and 100 nM PQ1 for both cell types. Colony Growth Assay: T47D human breast cancer cells were treated with PQ1. Base agar plates were prepared containing 0.8% agar and 0.4% agar in Ham's F12. Cells (5×10^4 cells/33 mm2 well) were suspended in 100 μl of Ham's F12 with 0.4% agar and plated. These plates were maintained at 37° C. for 7 days and examined for the presence of colonies. Individual colonies of 40 um or greater were examined.

Assay [2] relates to T47D human breast cancer cells. Kind of assay: Soft agar colony growth, T47D cells. In kind it is cell-based. Conditions: for effect on breast cancer cell colony growth: Table 2. How it is done:
Base agar plates were prepared containing 0.8% agar and 0.4% agar in Ham's F12. Cells (5×10^4 cells/33 mm^2 well) were suspended in 100 μl of Ham's F12 with 0.4% agar and plated. These plates were maintained at 37° C. for 7 days and examined for the presence of colonies. Individual colonies of 50 μm or greater were examined. T47D cells were treated with 1, 10 and 100 nM PQ1 and SA (succinic acid) as a solvent control. Individual colonies of 50 μm or greater were examined. Statistical significance, *p<0.05, of at least three experiments
as §1, with “types.” for “types. Colony Growth Assay: T47D human breast cancer cells were treated with PQ1. Base agar plates were prepared containing 0.8% agar and 0.4% agar in Ham's F12. Cells (5×10^4 cells/33 mm2 well) were suspended in 100 μl of Ham's F12 with 0.4% agar and plated. These plates were maintained at 37° C. for 7 days and examined for the presence of colonies. Individual colonies of 40 um or greater were examined.”
Colony Growth Assay: T47D human breast cancer cells were treated with PQ1. Base agar plates were prepared containing 0.8% agar and 0.4% agar in Ham's F12. Cells (5×10^4 cells/33 mm2 well) were suspended in 100 μl of Ham's F12 with 0.4% agar and plated. These plates were maintained at 37° C. for 7 days and examined for the presence of colonies. Individual colonies of 40 um or greater were examined.
Various oncogenes (e.g. ras, raf, neu, src, mos) down-regulate GJIC while several tumor suppressor genes can up-regulate GJIC. […] Cells were grown in soft agar to assess their capacity for anchorage-independent growth, which is a key feature of cell transformation due to the importance of cell-cell and cell-matrix based tumor suppression. MEC and T47D cells were treated with 10, 100, 1000, and 10000 nM PQ1 for 7 days. A graphical presentation of three experiment results is presented in log scale of PQ1 concentration. […] A 100 nM PQ1 inhibits 66% of colony growth compared to controls, without PQ1 treatment or 100 nM succinic acid.
Colony Growth Using Soft Agar. Cells were treated with 0, 10, 100, 200 and 500 nM PQ1 for 7 days. Base agar plates were prepared containing 0.8% agar and 0.4% agar in Ham's F12. Cells (5×10^4 cells/33 mm^2 well) were suspended in 100 μl of Ham's F12 with 0.4% agar and plated. These plates were maintained at 37° C. for 7 days and examined for the presence of colonies. Individual colonies of 50 μm or greater were examined.

The test system of another assay is HT29. Kind of assay: Gap junction intercellular communication, HT29 colon cancer cells. The format is cell-based. As to conditions: Table 3.
The subject of a further assay is ZR75. As to the kind of experiment: Gap junction intercellular communication, ZR75 cells. The format is cell-based, human. Conditions: Table 1.
A further assay deals with SW620 colon cancer cells. Kind of assay: Gap junction activity, SW620 colon cancer cells. The format is cell-based. The method, then: However, PQ3 has an opposite effect on mammary cancer cell lines. […] A summary of PQ-mediated GJIC activity and colony growth in breast and colon cancer cells is presented in Tables 1, 2, and 3, as well as FIGS. 10-13. In FIG. 10, SW620 cells were dosed for 24 hours with PQ1 at 100, 200, 300, and 500 nM. The gap junction activity was measured as a percent of control, as previously described. It was seen that all concentrations on PQ1 increased the gap junction activity in SW620 colon cancer cells as compared to the control. In FIG. 11, the effect of PQ1 on the expression of PKCγ was studied at concentrations of 100, 200, 300 and 500 nM PQ1 for 24 hours. It is seen in FIG. 11 that PQ1 has no effect on the expression of PKCγ at the levels tested. In FIGS. 12 and 13, the effect of PQ1 on the colony growth of SW620 colon cancer cells was measured with 1-100 nM PQ1 (FIG. 12) and 10 uM PQ1 (FIG. 13).

The test system of a further assay is MCF-7. As to the kind of experiment: Gap junction intercellular communication, MCF-7 cells. In kind it is cell-based, human. Conditions: Table 1.
The next assay relates to MDA-MB-231. As to the kind of experiment: Gap junction intercellular communication, MDA-MB-231 cells. In kind it is cell-based, human. As to conditions: Table 1.
The subject of the next assay is R28 cells. As to the kind of experiment: Dye transfer/scrape loading gap junction assay in R28 cells. The format is cell-based, rat. As to conditions: 10 μM for 40 minutes, compared to untreated control cells. The method, then: To determine the effects of the compounds of the invention on gap junctions, […] R28 cells and lucifer yellow dye and rhodamine dextran were used to study gap junction. (Das, S.; Lauer, J.; Barnett, M.; Lin, D.; Akoev, V.; Battina, S.; Hua, D. H.; Takemoto, D. J. PKCγ phosphorylates connexin50 on serine-430. A presentation at 2006 ARVO Annual Meeting, Apr. 30-May 4, 2006, Fort Lauderdale, Fla.). […] The cells were treated with different compounds as shown @ 10 μM for 40 minutes. A mixture of lucifer yellow (LY) and rhodamine dextran (RD) was added to the cells at the center of the coverslip. Two cuts across the coverslip were made to form a transient tear in the plasma membranes of the cells to permit dye transfer through gap junctions. Cells were incubated with the dye for 20 minutes, then fixed and examined by fluorescent microscopy. For quantitative analysis the extent of dye transfer was estimated by counting the number of LY and RD labeled cells in the microscopic field and graphed. […] PQ3 is useful as a drug having reduced gap junction inhibitory activity. The gap junction activity of other compounds of the invention may be tested as described herein without the use of undue experimentation.
Gap junction activity assay. R28 cells were grown to 90% confluency on coverslips. They were treated with PQ1 at 10 μM for 40 min. A mixture of 1% each, in PBS, Lucifer yellow (LY) and Rhodamine Dextran (RD) (Molecular Probes, Eugene, Oreg.) were added to the cells at the center of the coverslip. Two cuts across the coverslip were made to form a transient tear in the plasma membranes of the cells to permit dye entry into cells. Cells were incubated with 2.5 μl of both of the dyes for 20 min, then fixed in 2.5% paraformaldehyde, washed in PBS and examined by fluorescent microscopy using a Nikon C1 confocal microscopy. For quantitation, the extent of dye transfer was calculated by counting the number of LY-labeled cells from the initial scrape with subtraction of RD-labeled cells, as a cell damage control, in the microscopic field. Four points per slide were photographed. The experiments were repeated six times, and data are means±SEM.

In brackets after ≈: the same amount, converted by molar mass.

Regarding `COc1cc([N+](=O)[O-])c2nccc(C)c2c1Oc1cccc(C(F)(F)F)c1` [PQ2, 6-Methoxy-4-methyl-8-nitro-5-(3-trifluoromethylphenyloxy)quinoline], in the assay on MDA-MB-453 cells (24 hours), the “effect on gap junction activity” value is listed as “no significant effect”. Moreover, the “effect on gap junction intercellular communication” value in the assay with MDA-MB-453 cells is “No effect”; in the assay on HT29, “Increase”; in the assay with ZR75 it was “No effect”; in the assay on SW620 colon cancer cells (Table 3, 6 uM), “Increase”; with MCF-7, “Decrease”; with MDA-MB-231, “Decrease”. Further, the IC50 (in general, the concentration that inhibits the measured activity by half) with Trypanosoma brucei amounted to 2.5 µg/mL (≈ 6.6 µM). For the same compound, the “effect on breast cancer cell colony growth” value is reported as “No effect” in assay [1] and “Increase” in assay [2]. Moreover, the “increase in colony growth” value in assay [2] (10 μM, 7 days, compared to DMSO) turned out to be 2.6 fold.

`COc1cc([N+](=O)[O-])c(N)cc1Oc1cccc(C(F)(F)F)c1` [PQ4, 4-Amino-5-nitro-2-(3-trifluoromethylphenyloxy)anisole]: the “effect on gap junction intercellular communication” value was “No effect” with MDA-MB-453 cells; “Increase” in the assay on HT29; “No effect” in the assay with ZR75; “No effect” in the assay on SW620 colon cancer cells (Table 3, concentration not given); “No effect” in the assay with MCF-7; “Decrease” with MDA-MB-231. Also, in the assay on Trypanosoma brucei, the IC50 was 25 µg/mL (≈ 76.2 µM). For the same compound, the “effect on breast cancer cell colony growth” value is reported as “No effect” in [1] and “Decrease” in [2]. Also, in [2] (10 μM, 7 days), the “effect on colony growth” value is listed as “inhibitory effect”.

With `OC(c1cc(C(F)(F)F)nc2c(C(F)(F)F)cccc12)C1CCCCN1` (centres unmarked) [mefloquine, reference compound], the “block of lucifer yellow dye transfer through gap junctions” value with R28 cells is reported as “blocked dye transfer significantly”; in the assay with R28 cells (listed as MQ), “hardly any passage of the dye”.
